Where a name gives a salt, the structure may show the parent alone.
Test system: hippocampal slices incubated with Aβ oligomers
Experiment: Electrophysiology (LTP) in hippocampal slices incubated with Aβ oligomers
Format: cell-based, C57bl6 male mice
Method: Hippocampal slices were prepared according to standard procedures previously described. Briefly, transverse slices (350 μm) from the dorsal hippocampus were cut under cold artificial cerebrospinal fluid (ACSF, in mM: 124 NaCl, […], 10 D-glucose, 2.69 KCl, 1.25 KH2PO4 2.5 CaCl2, 1.3 MgSO4, and 2.60 NaHPO4) using a Vibratome (Leica VT 1000 s, Germany) and incubated in ACSF for 1 h at room temperature. In all experiments, 10 μM picrotoxin (PTX) was added to suppress inhibitory GABAA transmission. Slices were transferred to an experimental chamber (2 mL), superfused (3 mL/min, at 20-22° C.) with gassed ACSF and visualized by trans-illumination with a binocular microscope (MSZ-10, Nikon, Melville, N.Y.). To evoke field excitatory postsynaptic potentials (fEPSPs), we stimulate with bipolar concentric electrodes (Platinum/Iridium, 125 μm OD diameter, FHC Inc., Bowdoin, Me.) generated by a stimulator (Axon 700b, Molecular Devices, Sunnyvale, Calif.) and connected to an isolation unit (Isoflex, AMPI, Jerusalem, Israel). The stimulation was in the Stratum Radiatum within 100-200 μm from the recording site. The paired pulse facilitation index was calculated by ((R2−R1)/R1), where R1 and R2 were the peak amplitudes of the first and second fEPSP respectively. To generate LTP we used Theta Burst Stimulation (TBS) consisting of 5 trains of stimulus with an inter-train interval of 20 s. Each train consisted of 10 bursts at 5 Hz and each burst having 4 pulses at 100 Hz. To generate LTD we used Low Frequency Stimulation (LFS) consisting in 900 paired pulses at 1 Hz. […] Evoked postsynaptic responses were analyzed off-line, using an analysis software (pClampfit, Molecular Devices), which allowed visual detection of events, computing only those events that exceeded and arbitrary threshold.
Electrophysiological registers of hippocampal slices of 2-month-old C57bl6 male mice were assessed to evaluate the synaptic transmission through the long-term potentiation (LTP). […] In FIG. 3B, the quantification at min 60 of fEPSP are shown. […]

[1] = slices with Aβ oligomers, FIG. 3A

Row | SMILES | fEPSP magnitude response at min 60 (compared to slices treated with Aβ oligomers, FIG. 3B) | LTP induction [1] | LTP induction (in words) [1]
1 | CC1=C[C@H]2Cc3nc4cc(Cl)ccc4c(NCCCCCCCCCNC(=O)c4cc(O)c5c(c4)C(=O)c4cccc(O)c4C5=O)c3[C@@H](C1)C2 [(+)-(Ib)•HCl, (+)-(7R,11R)—N-{9-[(3-chloro-6,7,10,11-tetrahydro-9-methyl-7,11-methanocycloocta[b]quinolin-12-yl)amino]nonyl}-9,10-dihydro-4,5-dihydroxy-9,10-dioxoanthracene-2-carboxamide] | 200% | 200% | 
2 | CC1=C[C@@H]2Cc3nc4cc(Cl)ccc4c(NCCCCCCCCCNC(=O)c4cc(O)c5c(c4)C(=O)c4cccc(O)c4C5=O)c3[C@H](C1)C2 [(−)-(Ib)•HCl, (−)-(7S,11S)—N-{9-[(3-chloro-6,7,10,11-tetrahydro-9-methyl-7,11-methanocycloocta[b]quinolin-12-yl)amino]nonyl}-9,10-dihydro-4,5-dihydroxy-9,10-dioxoanthracene-2-carboxamide] |  |  | no LTP induction

Reference: patent US9238626B2 (priority 2012, dated 2016)
